Data set [1] has as its target T1, human kinesin Eg5 motor protein (Homo sapiens, UniProt P52732).
T1 construct: endogenous in cells; host or cells: HeLa cells
T1 sequence (P52732 1-1056): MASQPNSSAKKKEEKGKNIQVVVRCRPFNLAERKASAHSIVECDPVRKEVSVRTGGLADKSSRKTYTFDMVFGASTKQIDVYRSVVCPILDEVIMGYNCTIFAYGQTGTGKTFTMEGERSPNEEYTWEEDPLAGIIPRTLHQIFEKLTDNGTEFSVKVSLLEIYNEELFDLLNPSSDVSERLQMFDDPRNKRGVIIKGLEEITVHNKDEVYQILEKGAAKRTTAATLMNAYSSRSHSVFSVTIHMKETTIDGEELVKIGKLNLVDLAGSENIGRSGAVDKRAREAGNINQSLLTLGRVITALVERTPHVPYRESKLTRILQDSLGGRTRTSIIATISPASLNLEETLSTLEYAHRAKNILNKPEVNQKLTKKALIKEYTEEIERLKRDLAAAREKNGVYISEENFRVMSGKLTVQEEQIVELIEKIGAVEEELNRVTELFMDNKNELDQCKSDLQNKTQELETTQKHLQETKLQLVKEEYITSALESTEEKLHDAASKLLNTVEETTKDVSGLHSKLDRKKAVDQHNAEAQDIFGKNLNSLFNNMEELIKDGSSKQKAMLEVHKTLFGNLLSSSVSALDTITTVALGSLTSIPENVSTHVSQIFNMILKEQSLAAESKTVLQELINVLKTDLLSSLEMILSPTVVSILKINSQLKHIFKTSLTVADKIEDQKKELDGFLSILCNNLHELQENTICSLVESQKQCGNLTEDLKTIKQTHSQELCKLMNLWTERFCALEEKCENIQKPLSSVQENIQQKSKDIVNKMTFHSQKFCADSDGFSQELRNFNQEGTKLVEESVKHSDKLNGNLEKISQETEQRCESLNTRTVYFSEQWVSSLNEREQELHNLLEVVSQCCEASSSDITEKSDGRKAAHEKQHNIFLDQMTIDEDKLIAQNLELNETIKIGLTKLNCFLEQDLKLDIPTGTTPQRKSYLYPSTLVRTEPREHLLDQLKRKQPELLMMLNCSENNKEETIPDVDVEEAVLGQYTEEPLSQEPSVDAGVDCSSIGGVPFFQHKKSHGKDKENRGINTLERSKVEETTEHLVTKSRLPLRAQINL
In words: Monopolar spindle formation in HeLa cells treated with MSTLC probes (fixed, tubulin/DNA staining). The class given is cell-based. To be noted: read-out: EC50, monopolar spindles / block of bipolar spindle. On the procedure: The inhibitory activity of human kinesin Eg5 motor protein was tested using probes 3.3, 3.5 and 413. HeLa cells were treated with 10 μM of each probe, as well as the unconjugated inhibitor Methoxy-S-Trityl-L-cysteine. Then cells were incubated with anti-α tubulin 1:1000 primary antibody, AlexaFluor-546 conjugated rabbit anti-mouse secondary antibody and Hoechst 33342 for staining microtubules and DNA respectively. Cells were subsequently washed and mounted onto glass sides with 90% glycerol and imaged using a Zeiss Axiovert 200M inverted microscope outfitted with epifluorescence optics, and a Zeiss Apotome structured illumination module.

The subject of the next data set is HeLa cells. Nature of the data set: Live imaging of HeLa cells treated with MSTLC probes. The data set is classed as cell-based. To be noted: mitotic HeLa cells.
Another data set has as its system phospho-ERK. In words: Immunoblot of phospho-ERK accumulation in MCF7 cells. The data set is classed as cell-based. To be noted: 10 nM, about 15 minutes. On the procedure:
FIG. 9 illustrates that E2-HPY(530) treatment leads to the accumulation of phospho-ERK in MCF7 breast cancer cells. […] After about a 15 minute treatment, protein lysates were isolated for immunoblot analysis. The upper panel of […] was probed with pERK1/2 mAb (1:600, Santa Cruz Biotechnology) overnight at about 4° C. Lower panel was obtained after stripping the membrane and probing (1:3000) with Actin mAb overnight at about 4° C. Primary antibodies were visualized with horseradish peroxidase conjugated secondary antibodies.
FIG. 9 illustrates that E2-HPY(530) treatment leads to the accumulation of phospho-ERK in MCF7 breast cancer cells. […] Primary antibody raised against P-ERK was used to visualize p-ERK levels. Actin expression determined by Actin specific mAb was used as a loading control.

Data set [2] has as its system estrogen receptor (ER)-dependent promoter. Nature of the data set: Invitrogen SelectScreen Profiling Service, ER-mediated transcription. The class given is cell-based. To be noted: read-out: ED50, ER-mediated transcription.
Data set [3] is described as follows: Octanol/water partition coefficient (Log Po/w). The data set is classed as physicochemical.

`COc1ccc(C(SC[C@H](N)C(=O)NCCC#CC2=CN3C(=N[N+](=C(C)C)[B-]3(OC)OC)C=C2)(c2ccccc2)c2ccccc2)cc1` [3.5]: the EC50 in data set [1] is around 1030 nM. Moreover, the spindle phenotype result in the data set on HeLa cells is given as “formed monopolar spindles”.

As for `COc1ccc(C(SC[C@H](N)C(=O)NCCC#CC2=CN3C(=N[N+](=C(C)C)[B-]3(F)F)C=C2)(c2ccccc2)c2ccccc2)cc1` [3.3], the EC50 in data set [1] was around 1130 nM. Further, the spindle phenotype entry with HeLa cells is “formed monopolar spindles”.

For `C[C@]12CC[C@@H]3c4ccc(O)cc4CC[C@H]3[C@@H]1CC[C@@H]2O` [E2, 17-β-estradiol], in the data set on phospho-ERK, the “accumulation of phospho-ERK” value is on record as “resulted in the accumulation of phospho-ERK”. Moreover, in data set [2], the EC50 stood at 0.11 nM.

What is called logP is the decadic logarithm of the partition coefficient of the neutral form, usually between octanol and water. In data set [3], `F[B-]1(F)N2C=C(I)C=CC2=N[N+]1=C1c2ccccc2-c2ccccc21` [HPY(530)-Iodide, 2-(9H-fluoren-9-ylidene)-3,3-difluoro-6-iodo-2,3-dihydro-[1,2,4,3]triazaborolo[4,5-a]pyridin-2-ium-3-uide] returned a logP of 0.79.

(Values after patent US8715529B1, “Synthesis and applications of triazaborolopyridinium compounds and substituted triazaborolopyridinium compounds and methods of use” (Arrowhead Center, Inc., priority 2012, dated 2014).)
